In patent publication EP0245669B1, “Pharmaceutical preparation for preventing damage to living cells by free radicals, or for increasing the efficacy of organic sulphur compounds, and process for increasing the life span of isolated organs” (Medopharm Arzneimittelwerk Dr. Zillich GmbH & Co., priority 1986, dated 1987):
Counter-ions that a name gives are not always drawn.

System: weiblichen C3H Mäusen
Assay: Radiation protection: survival of mice after gamma irradiation (cobalt-60) following i.p. pretreatment
Assay type: in vivo, Mäuse
Conditions: for Ueberlebensrate nach Bestrahlung mit 9 Gy / überlebten eine Bestrahlung mit 9 Gy: 10 min before 9 Gy; for Ueberlebensrate nach Bestrahlung mit 9 Gy / Ueberlebensrate nach Bestrahlung mit 10 Gy / Ueberlebensrate nach Bestrahlung mit 11 Gy / Ueberlebensrate nach Bestrahlung mit 12 Gy / Ueberlebensrate nach Bestrahlung mit 14 Gy / Ueberlebensrate nach Bestrahlung mit 13 Gy: surviving after 30 days/irradiated mice; for Ueberlebensrate nach Bestrahlung mit 10 Gy / überlebten eine Bestrahlung mit 10 Gy: 10 min before 10 Gy; for Ueberlebensrate in %: AET alone in optimal dosage, 30 days after irradiation
Description: In den nachfolgenden Beispielen wurde die synergistische Wirkung der durch die erfindungsgemässe Verwendung hergestellten pharmazeutischen Präparate mit organische Schwefelverbindungen enthaltenden Präparaten anhand des Strahlenschutzes getestet und es wurde auch die Strahlenschutzwirkung der Zinkionen enthaltenden Präparate mit bisher bekannten Strahlenschutzpräparaten an Mäusen getestet. Die Versuche wurden mit weiblichen C3H Mäusen (GL. Bomholtgard, Ry, Dänemark) durchgeführt, die 20 bis 22 g wogen. Die Mäuse wurden unter Bedingungen gehalten, wo sie so viel Standard-Nagetierfutter (Nafag Pellts) fressen und so viel Leitungswasser trinken können, wie sie wollten. Die Bestrahlung erfolgte mit Gammastrahlen aus einer Kobalt-60 Quelle. Es wurden unterschiedliche Bestrahlungen vorgenommen, und zwar mit 9 Gy, 10 Gy, 11 Gy, 12 Gy, 13 Gy und 14 Gy.
10 Minuten vor der Bestrahlung, 30 Minuten vor der Bestrahlung oder 120 Minuten vor der Bestrahlung wurde ein durch die erfindungsgemässe Verwendung hergestelltes synergistisch wirkendes pharmazeutisches Präparat, bzw. ein entsprechendes, Zinkionen enthaltendes Strahlenschutzpräparat oder ein aus dem Stand der Technik bekanntes Strahlenschutzpräparat zu Vergleichszwecken durch intraperitoneale Injektion verabreicht.
Bei der Gruppe der Mäuse zu Vergleichszwecken, die ohne Verabreichung eines Strahlenschutzpräparates bestrahlt wurden, erfolgte 10 Minuten vor der Bestrahlung die Verabreichung von destilliertem Wasser. Bei diesen unbehandelten Mäusen überlebten nur 50% der Tiere eine Bestrahlung von 8 Gy, d.h. der LD₅₀-Wert betrug 8 Gy.
Nach den Arbeitsweisen der vorangegangenen Beispiele 1 bis 4, wurden weitere Tests mit den genannten weiblichen Mäusen durchgeführt, und zwar unter Verwendung der angeführten Zinksalze. Die bei diesen Tests erzielten Ergebnisse sind in der nachfolgenden Tabelle I zusammengestellt. Für jede der angewandten Bestrahlungsstärken ist in der Rubrik "Anzahl" diejenige Anzahl der Mäuse angeführt, welche die Bestrahlung überlebten, geteilt durch die Gesamtzahl der Mäuse, welche bestrahlt wurden. Ein entsprechender Wert von 1/10 bedeutet also, dass von 10 bestrahlten Mäusen eine überlebt hatte. In der Spalte mit der Bezeichnung "Prozent", ist die Prozent-Ueberlebensrate angeführt. Bei einer überlebenden Maus pro 10 getesteten Mäusen beträgt diese Ueberlebensrate 10 %.
Zu Vergleichszwecken sind in der nachfolgenden Tabelle III die Ueberlebensraten von Mäusen zusammengestellt, die nach dem in Beispiel 5 beschriebenen Verfahren einer Vorbehandlung mit einem bekannten schwefelhaltigen Strahlenschutzmittel unterworfen worden waren. Orientierende Vorversuche hatten gezeigt, dass diese Strahlenschutzmittel bereits ihre Wirkung verloren hatten, wenn sie zwei Stunden vor der Einwirkung der Bestrahlung verabreicht worden waren. Die Bestrahlung wurde, wie aus der Tabelle ersichtlich ist, zwei Minuten nach der Verabreichung, in den meisten Fällen 10 Minuten nach der Verabreichung, aber auch 30 Minuten, bzw. 120 Minuten nach der Verabreichung durchgeführt. Die Werte deuten darauf hin, dass 30 Minuten nach der Verabreichung die Schutzwirkung schon wieder deutlich nachgelassen hat. Für jede Bestrahlungsstärke ist wiederum die Anzahl der Tiere angeführt, die nach 30 Tagen überlebt haben, geteilt durch die Gesamtzahl der Tiere, die behandelt und bestrahlt worden waren.
Anhand dieses Beispiels soll die synergistische Wirkung von Zinkionen und Schwefelverbindungen bezüglich eines Strahlenschutzes erläutert werden. Es wurde wieder in der gleichen Weise gearbeitet, wie in den vorangegangenen Beispielen 1 bis 3, bzw. 5, und es wurde auch die gleiche Art an weiblichen Mäusen getestet. Die Verabreichung der Zinkionen enthaltenden Lösung und der Lösung der Schwefelverbindung erfolgte entweder nacheinander oder gleichzeitig durch intraperitoneale Injektion.
In allen Fällen wurde die Ueberlebensrate 30 Tage nach der Einwirkung der Bestrahlung bestimmt.

[1] = comparison with the zinc compounds to be used according to the invention

Q: For `N[C@@H](CS)C(=O)O` [Cystein, reference compound], which “Ueberlebensrate nach Bestrahlung mit 9 Gy” value (300 mg/kg i.p.) is on record?
A: 0/10

Q: What about the “Ueberlebensrate nach Bestrahlung mit 9 Gy” value (600 mg/kg i.p.) of the same compound?
A: 7/10

Q: What about the “Ueberlebensrate nach Bestrahlung mit 10 Gy” value (600 mg/kg i.p.) of the same compound?
A: 3/10

Q: And the “überlebten eine Bestrahlung mit 10 Gy” value (600 mg/kg)?
A: 3 von 10 Mäusen

Q: And the “Ueberlebensrate nach Bestrahlung mit 9 Gy” value (900 mg/kg i.p.)?
A: 10/10^+

Q: And the “Ueberlebensrate nach Bestrahlung mit 10 Gy” value (900 mg/kg i.p.)?
A: 4/10

Q: And the “Ueberlebensrate nach Bestrahlung mit 11 Gy” value (900 mg/kg i.p., 10 min before 11 Gy)?
A: 0/10

Q: What about the “überlebten eine Bestrahlung mit 10 Gy” value (900 mg/kg) of the same compound?
A: 4 von 10 Mäusen

Q: And the “Ueberlebensrate nach Bestrahlung mit 10 Gy” value (1200 mg/kg i.p.)?
A: 9/10^+

Q: And the “Ueberlebensrate nach Bestrahlung mit 11 Gy” value (1200 mg/kg i.p., 10 min before 11 Gy)?
A: 2/10^+

Q: What about the “Ueberlebensrate nach Bestrahlung mit 12 Gy” value (1200 mg/kg i.p., 10 min before 12 Gy) of the same compound?
A: 1/10^+

Q: And the “Ueberlebensrate nach Bestrahlung mit 11 Gy” value (1200 mg/kg i.p., 30 min before 11 Gy)?
A: 0/10

Q: What about the “überlebten eine Bestrahlung mit 10 Gy” value (1200 mg/kg) of the same compound?
A: 9 von 10 Mäusen

Q: What about the “überlebten (11 Gy)” value (1200 mg/kg, 10 min before 11 Gy) of the same compound?
A: zwei

Q: And the “Bestrahlung mit 11 Gy überlebt” value (600, 900 and 1200 mg/kg, 10 min before 11 Gy)?
A: praktisch keinem der Tiere

Q: And the Strahlenschutzwirkung [1]?
A: deutlich weniger wirksam

Q: `N[C@@H](CC(=O)O)C(=O)[O-].[Na+]` [Natriumaspartat, reference compound] was tested. Which Strahlenschutzwirkung (20 to 350 mg/kg body weight injected 10 min before 9 Gy, lethal dose already reached) did it give?
A: wirkungslos

Q: `NCCS` [Cysteamin, β-Merkaptoäthylamin, reference compound] was tested. Which “Ueberlebensrate nach Bestrahlung mit 10 Gy” value (75 mg/kg i.p.) did it give?
A: 0/10

Q: And the Strahlenschutzwirkung (150 mg/kg body weight, 10 min before 11 Gy)?
A: keine Strahlenschutzwirkung

Q: What about the “Ueberlebensrate nach Bestrahlung mit 9 Gy” value (150 mg/kg i.p.) of the same compound?
A: 10/10

Q: And the “Ueberlebensrate nach Bestrahlung mit 10 Gy” value (150 mg/kg i.p.)?
A: 9/10

Q: What about the “Ueberlebensrate nach Bestrahlung mit 11 Gy” value (150 mg/kg i.p., 10 min before 11 Gy) of the same compound?
A: 0/10

Q: And the Ueberlebensrate (225 mg/kg alone, injected 10 min before 13 Gy)?
A: 10%

Q: And the “Ueberlebensrate nach Bestrahlung mit 14 Gy” value (225 mg/kg i.p., 2 min before 14 Gy)?
A: 0/10

Q: What about the “Ueberlebensrate nach Bestrahlung mit 10 Gy” value (225 mg/kg i.p.) of the same compound?
A: 10/10^+

Q: And the “Ueberlebensrate nach Bestrahlung mit 11 Gy” value (225 mg/kg i.p., 10 min before 11 Gy)?
A: 8/10^+

Q: What about the “Ueberlebensrate nach Bestrahlung mit 12 Gy” value (225 mg/kg i.p., 10 min before 12 Gy) of the same compound?
A: 6/10^+

Q: What about the “Ueberlebensrate nach Bestrahlung mit 13 Gy” value (225 mg/kg i.p., 10 min before 13 Gy) of the same compound?
A: 1/10^+

Q: And the “Ueberlebensrate nach Bestrahlung mit 14 Gy” value (225 mg/kg i.p., 10 min before 14 Gy)?
A: 0/10

Q: What about the “Ueberlebensrate nach Bestrahlung mit 11 Gy” value (225 mg/kg i.p., 30 min before 11 Gy) of the same compound?
A: 6/10

Q: And the “Ueberlebensrate nach Bestrahlung mit 12 Gy” value (225 mg/kg i.p., 30 min before 12 Gy)?
A: 1/10

Q: And the “Ueberlebensrate nach Bestrahlung mit 11 Gy” value (225 mg/kg i.p., 120 min before 11 Gy)?
A: 0/10

Q: And the “überlebten eine Bestrahlung mit 11 Gy” value (225 mg/kg, 10 min before 11 Gy, of 10 animals tested)?
A: 8

Q: What about the “überlebten eine Bestrahlung mit 12 Gy” value (225 mg/kg, 10 min before 12 Gy, of 10 animals tested) of the same compound?
A: 6

Q: What about the “überlebten eine Bestrahlung mit 13 Gy” value (225 mg/kg, 10 min before 13 Gy, of 10 animals tested) of the same compound?
A: 1

Q: What about the “überlebten eine Bestrahlung mit 14 Gy” value (225 mg/kg, 10 min before 14 Gy, of 10 animals tested) of the same compound?
A: keines

Q: What about the “überlebten eine Bestrahlung mit 11 Gy” value (225 mg/kg, 30 min before 11 Gy, of 10 animals tested) of the same compound?
A: 6 Tiere

Q: What about the “überlebten eine Bestrahlung mit 12 Gy” value (225 mg/kg, 30 min before 12 Gy, of 10 animals tested) of the same compound?
A: 1 Tier

Q: With `N[C@@H](CCC(=O)N[C@@H](CS)C(=O)NCC(=O)O)C(=O)O` [L-Glutathion, reference compound] as the compound, how does the “überlebten eine Bestrahlung mit 9 Gy” value (100 mg/kg body weight (lower dose)) read?
A: 3 von 10 Tieren

Q: And the “Ueberlebensrate nach Bestrahlung mit 9 Gy” value (1000 mg/kg i.p.)?
A: 3/10

Q: What about the “überlebten eine Bestrahlung mit 9 Gy” value (2000 mg/kg body weight (higher dose)) of the same compound?
A: 2 von 10 Tieren

Q: And the “Ueberlebensrate nach Bestrahlung mit 9 Gy” value (2000 mg/kg i.p.)?
A: 2/10

Q: And the Strahlenschutzwirkung [1]?
A: deutlich weniger wirksam

Q: `N=C(N)SCCN` [AET, S-(2-Aminoäthyl)-isothiouroniunibromid-hydrobromid, reference compound] was tested. Which “Ueberlebensrate nach Bestrahlung mit 9 Gy” value (30 mg/kg i.p.) did it give?
A: 1/10

Q: And the Strahlenschutzwirksamkeit (125 mg/kg body weight, 10 min before irradiation)?
A: keine Strahlenschutzwirksamkeit

Q: What about the “Ueberlebensrate nach Bestrahlung mit 11 Gy” value (125 mg/kg i.p., 10 min before 11 Gy) of the same compound?
A: 0/10

Q: What about the “Ueberlebensrate nach Bestrahlung mit 13 Gy” value (125 mg/kg i.p., 10 min before 13 Gy) of the same compound?
A: 0/10

Q: And the “überlebte eine Bestrahlung mit 11 Gy” value (125 mg/kg, 10 min before 11 Gy)?
A: kein Tier

Q: And the “überlebte eine Bestrahlung mit 13 Gy” value (125 mg/kg, 10 min before 13 Gy)?
A: kein Tier

Q: And the “Ueberlebensrate nach Bestrahlung mit 13 Gy” value (250 mg/kg i.p., 2 min before 13 Gy)?
A: 0/10

Q: And the “Ueberlebensrate nach Bestrahlung mit 11 Gy” value (250 mg/kg i.p., 10 min before 11 Gy)?
A: 10/10^+

Q: What about the “Ueberlebensrate nach Bestrahlung mit 12 Gy” value (250 mg/kg i.p., 10 min before 12 Gy) of the same compound?
A: 9/10^+

Q: What about the “Ueberlebensrate nach Bestrahlung mit 13 Gy” value (250 mg/kg i.p., 10 min before 13 Gy) of the same compound?
A: 2/10^+

Q: What about the “Ueberlebensrate nach Bestrahlung mit 14 Gy” value (250 mg/kg i.p., 10 min before 14 Gy) of the same compound?
A: 0/10

Q: What about the “Ueberlebensrate nach Bestrahlung mit 11 Gy” value (250 mg/kg i.p., 30 min before 11 Gy) of the same compound?
A: 10/10

Q: What about the “Ueberlebensrate nach Bestrahlung mit 12 Gy” value (250 mg/kg i.p., 30 min before 12 Gy) of the same compound?
A: 2/10

Q: What about the “Ueberlebensrate nach Bestrahlung mit 11 Gy” value (250 mg/kg i.p., 120 min before 11 Gy) of the same compound?
A: 0/10

Q: What about the “überlebten eine Bestrahlung von 11 Gy” value (250 mg/kg, 10 min before 11 Gy) of the same compound?
A: sämtliche

Q: And the “überlebten eine Bestrahlung von 12 Gy” value (250 mg/kg, 10 min before 12 Gy)?
A: 9 von 10 getesteten Tieren

Q: What about the “überlebten eine Bestrahlung von 13 Gy” value (250 mg/kg, 10 min before 13 Gy) of the same compound?
A: 2 von 10 getesteten Tieren

Q: What about the “Bestrahlung von 14 Gy überlebt” value (250 mg/kg, 10 min before 14 Gy, 10 animals tested) of the same compound?
A: von keinem der 10 getesteten Tiere

Q: What about the Ueberlebensrate in % (11 Gy) of the same compound?
A: 100%

Q: And the Ueberlebensrate in % (12 Gy)?
A: 90%

Q: And the Ueberlebensrate in % (13 Gy)?
A: 20%

Q: And the Ueberlebensrate in % (14 Gy)?
A: 0%

Q: For Kupferaspartat [reference compound], which Strahlenschutzwirkung (10 to 30 mg/kg body weight injected 10 min before 9 Gy, lethal dose already reached) is on record?
A: wirkungslos

Q: Which “Synergismus mit Zinkionen (Strahlenschutz)” value (in combination with zinc ions and zinc complexes, procedure of Example 6) does the source give for `COc1ccc(CCCCNCCSS(=O)(=O)O)cc1` [reference compound] here?
A: die besten Ergebnisse
